Laboratory results as given in patent publication EP4745118A1, “HYDROXAMIC ACID COMPOUND OR PHARMACEUTICALLY ACCEPTABLE SALT THEREOF, AND USE THEREOF AND PREPARATION METHOD THEREFOR” (priority 2023, dated 2025).
≈ marks a conversion by molar mass, not a printed value. Like-named read-outs stand apart in the source and are kept apart here.

Experiments:
Experiment in all cases: In vitro antibacterial activity, agar dilution method (MIC)
Format in all cases: cell-based
Citrobacter freundii = settings: ATCC43864; Citrobacter freundii ATCC 43864; agar dilution, 35°C, 18 hours; read-out: MIC
Protocol: (§1) According to the relevant operating procedures of the Clinical Laboratory Standards Institute (CLSI) in the United States, an antimicrobial susceptibility testing was conducted using the agar dilution method. […]. The agar was allowed to solidify and set aside for later use.
(§2) The test bacteria were propagated in broth and adjusted to a turbidity of 0.5 McFarland (approximately 1-2 × 10^8 CFU/mL) using a turbidimeter before inoculation. The 0.5 McFarland bacterial solution was then diluted 10-fold in broth (approximately 1-2 × 10^7 CFU/mL). A multipoint inoculator was used to inoculate the above bacterial solution onto a series of plates containing different concentrations of drugs (with an inoculation amount of approximately 10^4 CFU per inoculation site). After incubation at a constant temperature of 35°C for 18 hours, results were observed. The minimum concentration of drugs contained in sterile growth plates was determined as the Minimal Inhibitory Concentration (MIC).

Enterobacter aerogenes = settings: Klebsiella aerogenes, ATCC13048; Enterobacter aerogenes ATCC 13048; agar dilution, 35°C, 18 hours; read-out: MIC
Protocol: as §1, §2

Escherichia coli = settings: Escherichia coli, agar dilution, 35°C
Protocol: as §1, §2

Klebsiella pneumoniae = settings: Klebsiella pneumoniae, agar dilution, 35°C, 18 hours
Protocol: as §1, §2

Pantoea agglomerans = settings: ATCC27993; Pantoea agglomerans ATCC 27993; agar dilution, 35°C, 18 hours; read-out: MIC
Protocol: as §1, §2

Proteus mirabilis = settings: ATCC49565; Proteus mirabilis ATCC 49565; agar dilution, 35°C, 18 hours; read-out: MIC
Protocol: as §1, §2

Proteus vulgaris = settings: ATCC29905; Proteus vulgaris ATCC 29905; agar dilution, 35°C, 18 hours; read-out: MIC
Protocol: as §1, §2

Pseudomonas aeruginosa = Pseudomonas aeruginosa PAO1; agar dilution, 35°C, 18 hours; read-out: MIC
Protocol: as §1, §2

Serratia marcescens = settings: ATCC21074; Serratia marcescens ATCC 21074; agar dilution, 35°C, 18 hours; read-out: MIC
Protocol: as §1, §2

Enterobacter cloacae = Enterobacter cloacae CDC1000654 (NDM-1-producing); agar dilution, 35°C, 18 hours; read-out: MIC
Protocol: According to the relevant operating procedures of the Clinical Laboratory Standards Institute (CLSI) in the United States, an antimicrobial susceptibility testing was conducted using the agar dilution method. […] The agar was allowed to solidify and set aside for later use.
as §2

Shigella flexneri = settings: ATCC12022, Shigella flexneri ATCC 12022, 35°C, 18 hours, read-out: MIC
Protocol: According to the relevant operating procedures of the Clinical Laboratory Standards Institute (CLSI) in the United States, an antimicrobial susceptibility testing was conducted using the agar dilution method. A 1920 µg/mL stock solution was serially diluted twofold with sterile water to obtain dilutions of 960, 480, 240, 120, 60, 30, 15, 7.5, 3.75, 1.88, 0.94, 0.47 µg/mL, and 1 mL of the dilution was taken respectively from the dilutions with different concentrations and added to a Petri dish, to which 14 mL of melted MH agar medium was added and mixed thoroughly, and the final concentration of the drug in the petri dish is 128, 64, 32, 16, 8, 4, 2, 1, 0.5, 0.25, 0.12, 0.06, and 0.03 µ g/mL, respectively. The agar was allowed to solidify and set aside for later use.
as §2

[1] = 18 h, Escherichia coli 13-43 (mcr-1), 18 hours, read-out: MIC
[2] = 18 h, Escherichia coli 17-R28 (CRE, NDM-1-producing), 18 hours, read-out: MIC
[3] = ATCC2469, 18 h, Escherichia coli ATCC 2469 (CRE, NDM-1-producing), 18 hours, read-out: MIC
[4] = ATCC35218, 18 h, Escherichia coli ATCC 35218 (ESBLs-producing), 18 hours, read-out: MIC
[5] = 18 h, Klebsiella pneumoniae 09-20 (mcr-1), read-out: MIC
[6] = 18 h, Klebsiella pneumoniae 17-R27 (CRE), read-out: MIC
[7] = 18 h, Klebsiella pneumoniae 18-8 (ESBLs-producing), read-out: MIC
[8] = ATCC700603, 18 h, Klebsiella pneumoniae ATCC 700603 (ESBLs-producing), read-out: MIC
[9] = ATCCBAA2146, 18 h, Klebsiella pneumoniae ATCC BAA-2146 (CRE, NDM-1-producing), read-out: MIC
[10] = ATCCBAA2146, 18 h, Klebsiella pneumoniae ATCC BAA-2146 (CRE, NDM-1-producing)

Compound	MIC (Citrobacter freundii)	MIC (Enterobacter aerogenes)	MIC (Escherichia coli; [1])	MIC (Escherichia coli; [2])	MIC (Escherichia coli; [3])	MIC (Escherichia coli; [4])	MIC (Klebsiella pneumoniae; [5])	MIC (Klebsiella pneumoniae; [6])	MIC (Klebsiella pneumoniae; [7])	MIC (Klebsiella pneumoniae; [8])	MIC (Klebsiella pneumoniae; [9])	MIC (Pantoea agglomerans)	MIC (Proteus mirabilis)	MIC (Proteus vulgaris)	MIC (Pseudomonas aeruginosa)	MIC (Serratia marcescens)	MIC (Enterobacter cloacae)	MIC (Shigella flexneri)	MIC (Klebsiella pneumoniae; [10])	MIC (Escherichia coli; 18 h, Escherichia coli 17-R28 (CRE, NDM-1-producing))
NCC[C@H](O)C(=O)N[C@@H]1C[C@H](N)[C@@H](O[C@H]2O[C@H](CN)[C@@H](O)[C@H](O)[C@H]2O)[C@H](O)[C@H]1O[C@H]1O[C@H](CO)[C@@H](O)[C@H](N)[C@H]1O [Amikacin]	2 µg/mL (≈ 3.42 µM)	1 µg/mL (≈ 1.71 µM)	4 µg/mL (≈ 6.83 µM)	> 128 µg/mL	> 128 µg/mL	4 µg/mL (≈ 6.83 µM)	> 128 µg/mL	2 µg/mL (≈ 3.42 µM)	1 µg/mL (≈ 1.71 µM)	1 µg/mL (≈ 1.71 µM)	> 128 µg/mL	2 µg/mL (≈ 3.42 µM)	2 µg/mL (≈ 3.42 µM)	1 µg/mL (≈ 1.71 µM)	2 µg/mL (≈ 3.42 µM)	2 µg/mL (≈ 3.42 µM)	> 128 µg/mL	4 µg/mL (≈ 6.83 µM)	–	–
C[C@H]1[C@H](NC(=O)/C(=N\OC(C)(C)C(=O)O)c2csc(N)n2)C(=O)N1S(=O)(=O)O [Aztreonam]	0.12 µg/mL (≈ 0.276 µM)	0.12 µg/mL (≈ 0.276 µM)	16 µg/mL (≈ 36.7 µM)	8 µg/mL (≈ 18.4 µM)	4 µg/mL (≈ 9.19 µM)	≤ 0.03 µg/mL	0.25 µg/mL (≈ 0.574 µM)	0.25 µg/mL (≈ 0.574 µM)	1 µg/mL (≈ 2.3 µM)	16 µg/mL (≈ 36.7 µM)	–	≤ 0.03 µg/mL	≤ 0.03 µg/mL	≤ 0.03 µg/mL	4 µg/mL (≈ 9.19 µM)	0.12 µg/mL (≈ 0.276 µM)	–	0.06 µg/mL (≈ 0.138 µM)	> 128 µg/mL	–
CO/N=C(\C(=O)N[C@@H]1C(=O)N2C(C(=O)[O-])=C(C[N+]3(C)CCCC3)CS[C@H]12)c1csc(N)n1 [Cefepime]	≤ 0.03 µg/mL	0.06 µg/mL (≈ 0.125 µM)	2 µg/mL (≈ 4.16 µM)	–	64 µg/mL (≈ 133 µM)	≤ 0.03 µg/mL	1 µg/mL (≈ 2.08 µM)	0.5 µg/mL (≈ 1.04 µM)	1 µg/mL (≈ 2.08 µM)	1 µg/mL (≈ 2.08 µM)	–	0.06 µg/mL (≈ 0.125 µM)	0.06 µg/mL (≈ 0.125 µM)	≤ 0.03 µg/mL	2 µg/mL (≈ 4.16 µM)	0.06 µg/mL (≈ 0.125 µM)	–	≤ 0.03 µg/mL	128 µg/mL (≈ 266 µM)	> 128 µg/mL
COCC1CC1C#CC#Cc1ccc(C(=O)N[C@H](C(=O)NO)C(C)(C)N)cc1 (stereo partly drawn) [Formula I]	0.5 µg/mL	2 µg/mL	0.5 µg/mL	0.5 µg/mL	0.5 µg/mL	0.5 µg/mL	2 µg/mL	2 µg/mL	–	4 µg/mL	8 µg/mL	4 µg/mL	2 µg/mL	0.5 µg/mL	2 µg/mL	0.5 µg/mL	4 µg/mL	0.25 µg/mL	–	–
